Test results from patent US11839214B2, “Fungicidal mixture comprising substituted pyridines” (BASF SE, priority 2017, dated 2023).

Assays:
Type in all cases: cell-based
[1] = test system: Pyricularia oryzae; test: microbe, parasite or virus in culture; conditions: for Observed efficacy: single active compound; for inhibition of growth at 0.25 ppm / inhibition of growth at 4 ppm / inhibition of growth at 0.063 ppm / inhibition of growth at 1 ppm: Pyricularia oryzae, 168 h, read-out: Observed efficacy
[2] = test system: Septoria tritici; test: Activity against leaf blotch on wheat caused by Septoria tritici (microtiterplate test); conditions: single active
[3] = test system: Botrytis cinerea; test: Activity against the grey mold Botrytis cinerea in the microtiterplate test; conditions: single active compound
[4] = Zymoseptoria tritici, 168 h, 1 ppm, read-out: Observed efficacy
[5] = Botrytis cinerea, 168 h, 1 ppm, read-out: Observed efficacy
[6] = Zymoseptoria tritici, 168 h, 0.25 ppm, read-out: Observed efficacy
[7] = Zymoseptoria tritici, 168 h, read-out: Observed efficacy
[8] = Botrytis cinerea, 168 h, read-out: Observed efficacy

Compound: Cc1ccc(C(=O)OCc2ccc(Oc3ccccc3)cc2)c(N)n1 [Aminopyrifen, aminopyrifen]
- Observed efficacy ([1]; 0.001 ppm): 0%
- Observed efficacy ([1]; 0.004 ppm): 6%
- Observed efficacy ([1]; 0.016 ppm): 36%

Compound: CO/C=C(/C(=O)OC)c1ccccc1Oc1cc(Oc2ccccc2C#N)ncn1 [Azoxystrobin, azoxystrobin]
- Observed efficacy ([2]; 0.004 ppm): 5%
- Observed efficacy ([2]; 0.016 ppm): 2%
- Observed efficacy ([2]; 0.063 ppm): 26%
- Observed efficacy ([3]; 0.063 ppm): 5%
- Observed efficacy ([1]; 0.004 ppm): 4%
- Observed efficacy ([1]; 0.016 ppm): 44%

Compound: O=C(Nc1ccccc1-c1ccc(Cl)cc1)c1cccnc1Cl [Boscalid, boscalid]
- inhibition of growth at 1 ppm [2, 4]: 58%
- inhibition of growth at 1 ppm [3, 5]: 63%
- inhibition of growth at 0.25 ppm [1]: 2%
- inhibition of growth at 4 ppm [1]: 10%

Compound: COc1cc(C2=NC(C)(C)C(F)(F)c3ccccc32)cnc1C(F)F [Compound 1-4]
- inhibition of growth at 0.25 ppm [2, 6]: 7%
- inhibition of growth at 1 ppm [2, 4]: 8%
- inhibition of growth at 4 ppm [2, 7]: 1%
- inhibition of growth at 16 ppm ([2]; Zymoseptoria tritici, 168 h, 16 ppm, read-out: Observed efficacy): 17%
- inhibition of growth at 1 ppm [3, 5]: 12%
- inhibition of growth at 4 ppm [3, 8]: 21%
- inhibition of growth at 16 ppm ([3]; Botrytis cinerea, 168 h, 16 ppm, read-out: Observed efficacy): 41%
- inhibition of growth at 0.063 ppm [1]: 18%
- inhibition of growth at 0.25 ppm [1]: 23%
- inhibition of growth at 1 ppm [1]: 29%
- inhibition of growth at 4 ppm [1]: 42%

Compound: Cc1cc(C2CC2)nc(Nc2ccccc2)n1 [Cyprodinil, cyprodinil]
- inhibition of growth at 4 ppm [2, 7]: 10%
- inhibition of growth at 4 ppm [3, 8]: 53%
- inhibition of growth at 1 ppm [1]: 50%
- inhibition of growth at 4 ppm [1]: 61%

Compound: CC1COC(Cn2cncn2)(c2ccc(Oc3ccc(Cl)cc3)cc2Cl)O1 (centres unmarked) [Difenoconazol, difenoconazole]
- inhibition of growth at 0.016 ppm ([2]; Zymoseptoria tritici, 168 h, 0.016 ppm, read-out: Observed efficacy): 22%
- inhibition of growth at 0.25 ppm ([3]; Botrytis cinerea, 168 h, 0.25 ppm, read-out: Observed efficacy): 21%
- inhibition of growth at 0.063 ppm [1]: 2%
- inhibition of growth at 0.25 ppm [1]: 11%

Compound: CNC(=O)/C(=N/OC)c1ccccc1COc1cc(C)ccc1C [Dimoxystrobin, dimoxystrobin]
- Observed efficacy ([2]; 0.016 ppm): 2%
- Observed efficacy ([2]; 0.063 ppm): 27%
- Observed efficacy ([3]; 0.063 ppm): 0%
- Observed efficacy ([3]; 0.25 ppm): 12%

Compound: COc1ccnc(C(=O)N[C@@H](C)C(=O)O[C@@H](C)C(c2ccc(F)cc2)c2ccc(F)cc2)c1OC(C)=O [Florylpicoxamid, florylpicoxamid]
- Observed efficacy ([2]; 0.063 ppm): 54%
- Observed efficacy ([2]; 0.25 ppm): 79%
- Observed efficacy ([3]; 0.25 ppm): 2%
- Observed efficacy ([3]; 1 ppm): 12%
- Observed efficacy ([1]; 0.016 ppm): 49%

Compound: CC1CC(C)(C)c2c(F)ccc(NC(=O)c3cn(C)nc3C(F)F)c21 (centres unmarked) [Fluindapyr, fluindapyr]
- Observed efficacy ([2]; 0.25 ppm): 22%
- Observed efficacy ([2]; 1 ppm): 67%
- Observed efficacy ([3]; 0.25 ppm): 30%
- Observed efficacy ([1]; 1 ppm): 41%

Compound: O=C(NCCc1ncc(C(F)(F)F)cc1Cl)c1ccccc1C(F)(F)F [Fluopyram, fluopyram]
- inhibition of growth at 0.25 ppm [2, 6]: 23%
- inhibition of growth at 0.25 ppm [1]: 7%

Compound: Cn1cc(C(=O)Nc2ccccc2-c2cc(F)c(F)c(F)c2)c(C(F)F)n1 [Fluxapyroxad, fluxapyroxad]
- Observed efficacy ([2]; 0.063 ppm): 24%
- Observed efficacy ([3]; 0.063 ppm): 28%
- Observed efficacy ([1]; 0.063 ppm): 8%

Compound: C=CCOC(Cn1ccnc1)c1ccc(Cl)cc1Cl (centres unmarked) [Imazalil, imazalil]
- inhibition of growth at 1 ppm [3, 5]: 54%
- inhibition of growth at 1 ppm [1]: 20%

Compound: Cc1cc(OC(C)C)ccc1C(=O)C(C)(C)NC(=O)c1sccc1C [Isofetamid, isofetamid]
- Observed efficacy ([2]; 0.25 ppm): 44%
- Observed efficacy ([3]; 1 ppm): 68%
- Observed efficacy ([1]; 1 ppm): 1%
- Observed efficacy ([1]; 4 ppm): 10%

Compound: CC(C)c1ccc(Cl)cc1CN(C(=O)c1c(C(F)F)nn(C)c1F)C1CC1 [Isoflucypram, isoflucypram]
- Observed efficacy ([2]; 0.063 ppm): 72%
- Observed efficacy ([3]; 0.25 ppm): 59%
- Observed efficacy ([1]; 1 ppm): 14%

Compound: CNC(=O)C(OC)c1ccccc1COc1cc(C)ccc1C (centres unmarked) [Mandestrobin, mandestrobin]
- Observed efficacy ([2]; 1 ppm): 11%
- Observed efficacy ([1]; 1 ppm): 9%

Compound: CC(O)(Cn1cncn1)c1ccc(Oc2ccc(Cl)cc2)cc1C(F)(F)F (centres unmarked) [Mefentrifluconazol, mefentrifluconazole]
- Observed efficacy ([3]; 0.016 ppm): 10%
- Observed efficacy ([1]; 0.016 ppm): 7%

Compound: CC#Cc1cc(C)nc(Nc2ccccc2)n1 [Mepanipyrim, mepanipyrim]
- inhibition of growth at 1 ppm [3, 5]: 63%
- inhibition of growth at 4 ppm [3, 8]: 72%
- inhibition of growth at 0.25 ppm [1]: 3%
- inhibition of growth at 1 ppm [1]: 45%
- inhibition of growth at 4 ppm [1]: 64%

Compound: COCC(=O)N(c1c(C)cccc1C)C(C)C(=O)OC (centres unmarked) [Metalaxyl, metalaxyl]
- inhibition of growth at 4 ppm [3, 8]: 19%
- inhibition of growth at 1 ppm [1]: 4%
- inhibition of growth at 4 ppm [1]: 11%
